Where two headings read alike, the source gives them in different places. Numbered stars: 1 amine (or outer) side, 2 acyl side, 3 side chain; on linkers, the order of the positions; unused ones are H or OH. Bridge positions count the residues as written; N and C are the ends. Square brackets hold non-standard residues; d marks the D form. Peptide text beside a SMILES is read from it. I, II: the chains in the order shown. * marks the point of attachment. X1 = CC(C)CCC[C@@H](C)[C@H]1CC[C@H]2[C@@H]3CC=C4C[C@@H](OCCN(CCNC(=O)CCOCCOCCOCCOCCNC(=O)CCCN5C(=O)CC([*:1])C5=O)CCNC(=O)CCOCCOCCOCCOCCNC(=O)CCCN5C(=O)CC([*:2])C5=O)CC[C@]4(C)[C@H]3CC[C@]12C; Succinimide(1-Et,3-yl) = CCN1C(=O)CC(*)C1=O; Cbz = O=C(OCc1ccccc1)*
Columns and labels:
[1] = biological target: viral glycoproteins (H and F); Nectin-4 (Measles virus, UniProt Q786F3); assay: beta-galactosidase complementation-based fusion assay, Nectin-4 target cells
[2] = biological target: viral glycoproteins (H and F); CD150; assay: beta-galactosidase complementation-based fusion assay, CD150 target cells; conditions: for IC90: read-out: CD150 IC90
[3] = biological target: measles virus (MeV) fusion protein F, wild type, expressed on cells (measles virus) (UniProt Q786F3); assay: cell-based or functional assay
[4] = Nectin4 IC50, Table 3 (extended version)
[5] = IC50, Table 2 (salient peptides), Nectin-4 target cells

Molecule | IC90 ([1]; read-out: Nectin4 IC90) | IC50 [2] | IC90 [2] | other results
CC(C)CCC[C@@H](C)[C@H]1CC[C@H]2[C@@H]3CC=C4C[C@@H](OCCN(CCNC(=O)CCOCCOCCOCCOCCNC(=O)CCCN5C(=O)CC(SC[C@H](NC(=O)CNC(=O)[C@H](Cc6ccccc6)NC(=O)[C@@H](Cc6ccccc6)NC(=O)OCc6ccccc6)C(=O)O)C5=O)CCNC(=O)CCOCCOCCOCCOCCNC(=O)CCCN5C(=O)CC(SC[C@H](NC(=O)CNC(=O)[C@H](Cc6ccccc6)NC(=O)[C@@H](Cc6ccccc6)NC(=O)OCc6ccccc6)C(=O)O)C5=O)CC[C@]4(C)[C@H]3CC[C@]12C (stereo partly shown) [[FIP-peg4]2-chol (no GSGSG)] | > 1 µM | > 0.7 µM | > 1 µM | IC50 [1, 4]: > 1 µM
CC(C)CCC[C@@H](C)[C@H]1CC[C@H]2[C@@H]3CC=C4C[C@@H](OC(=O)CCOCCOCCOCCOCCOCCOCCOCCOCCOCCOCCOCCOCCOCCOCCOCCOCCOCCOCCOCCOCCOCCOCCOCCOCCNC(=O)CSC[C@H](NC(=O)CNC(=O)[C@H](Cc5ccccc5)NC(=O)[C@@H](Cc5ccccc5)NC(=O)OCc5ccccc5)C(=O)O)CC[C@]4(C)[C@H]3CC[C@]12C [peg24 chol [FIP] (no GSGSG)] | 0.568 ± 0.186 µM |  | 0.544 ± 0.0348 µM | 
CC[C@H](C)[C@H](NC(=O)[C@H](C)NC(=O)[C@H](CC(N)=O)NC(=O)CNC(=O)[C@H](CC(C)C)NC(=O)[C@H](CC(N)=O)NC(=O)[C@@H](NC(=O)CNC(=O)[C@@H](NC(=O)[C@H](CC(=O)O)NC(=O)[C@H](CC(C)C)NC(=O)[C@H](CCCNC(=N)N)NC(=O)[C@H](CCC(=O)O)NC(=O)[C@H](CC(C)C)NC(=O)[C@H](CO)NC(=O)[C@@H](NC(=O)[C@@H]1CCCN1C(=O)[C@@H]1CCCN1C(=O)CNC(=O)[C@H](CO)NC(=O)CNC(=O)[C@H](CO)NC(=O)CNC(=O)CNC(=O)[C@H](Cc1ccccc1)NC(=O)[C@@H](Cc1ccccc1)NC(=O)OCc1ccccc1)[C@@H](C)CC)C(C)C)[C@@H](C)O)C(=O)N[C@@H](C)C(=O)N[C@@H](CCCCN)C(=O)N[C@@H](CC(C)C)C(=O)N[C@@H](CCC(=O)O)C(=O)N[C@@H](CC(=O)O)C(=O)N[C@@H](C)C(=O)N[C@@H](CCCCN)C(=O)N[C@@H](CCC(=O)O)C(=O)N[C@@H](CC(C)C)C(=O)N[C@@H](CC(C)C)C(=O)N[C@@H](CCC(=O)O)C(=O)N[C@@H](CO)C(=O)N[C@@H](CO)C(=O)N[C@@H](CC(=O)O)C(=O)N[C@@H](CCC(N)=O)C(=O)N[C@H](C(=O)N[C@@H](CC(C)C)C(=O)N[C@@H](CCCNC(=N)N)C(=O)N[C@@H](CSC1CC(=O)N(CCCC(=O)NCCOCCOCCOCCOCCC(=O)NCCN(CCNC(=O)CCOCCOCCOCCOCCNC(=O)CCCN2C(=O)CC(SC[C@H](NC(=O)[C@H](CCCNC(=N)N)NC(=O)[C@H](CC(C)C)NC(=O)[C@@H](NC(=O)[C@H](CCC(N)=O)NC(=O)[C@H](CC(=O)O)NC(=O)[C@H](CO)NC(=O)[C@H](CO)NC(=O)[C@H](CCC(=O)O)NC(=O)[C@H](CC(C)C)NC(=O)[C@H](CC(C)C)NC(=O)[C@H](CCC(=O)O)NC(=O)[C@H](CCCCN)NC(=O)[C@H](C)NC(=O)[C@H](CC(=O)O)NC(=O)[C@H](CCC(=O)O)NC(=O)[C@H](CC(C)C)NC(=O)[C@H](CCCCN)NC(=O)[C@H](C)NC(=O)[C@@H](NC(=O)[C@H](C)NC(=O)[C@H](CC(N)=O)NC(=O)CNC(=O)[C@H](CC(C)C)NC(=O)[C@H](CC(N)=O)NC(=O)[C@@H](NC(=O)CNC(=O)[C@@H](NC(=O)[C@H](CC(=O)O)NC(=O)[C@H](CC(C)C)NC(=O)[C@H](CCCNC(=N)N)NC(=O)[C@H](CCC(=O)O)NC(=O)[C@H](CC(C)C)NC(=O)[C@H](CO)NC(=O)[C@@H](NC(=O)[C@@H]3CCCN3C(=O)[C@@H]3CCCN3C(=O)CNC(=O)[C@H](CO)NC(=O)CNC(=O)[C@H](CO)NC(=O)CNC(=O)CNC(=O)[C@H](Cc3ccccc3)NC(=O)[C@@H](Cc3ccccc3)NC(=O)OCc3ccccc3)[C@@H](C)CC)C(C)C)[C@@H](C)O)[C@@H](C)CC)[C@@H](C)CC)C(=O)O)C2=O)CCO[C@H]2CC[C@@]3(C)C(=CC[C@H]4[C@@H]5CC[C@H]([C@H](C)CCCC(C)C)[C@@]5(C)CC[C@@H]43)C2)C1=O)C(=O)O)[C@@H](C)CC (stereo partly shown) | 0.22 ± 0.189 µM | 0.0589 ± 0.0698 µM | 0.287 ± 0.0245 µM | IC50 [1]: 0.0602 ± 0.0655 µM
O=C(CCN1C(=O)CC(SC[C@H](NC(=O)CNC(=O)[C@H](Cc2ccccc2)NC(=O)[C@@H](Cc2ccccc2)NC(=O)OCc2ccccc2)C(=O)O)C1=O)NCCOCCOCCOCCOCCOCCOCCOCCOCCOCCOCCOCCNC(=O)CCN1C(=O)CC(SC[C@H](NC(=O)CNC(=O)[C@H](Cc2ccccc2)NC(=O)[C@@H](Cc2ccccc2)NC(=O)OCc2ccccc2)C(=O)O)C1=O (stereo partly shown) [[FIP]2-peg11 (no GSGSG)] | > 1 µM | > 0.6 µM | > 1 µM | IC90 [1]: > 10 µM; IC50 [1, 5]: > 10 µM; IC50 [1, 4]: > 0.7 µM
CC(C)CCC[C@@H](C)[C@H]1CC[C@H]2[C@@H]3CC=C4C[C@@H](OC(=O)CCOCCOCCOCCOCCNC(=O)CSC[C@H](NC(=O)CNC(=O)[C@H](Cc5ccccc5)NC(=O)[C@@H](Cc5ccccc5)NC(=O)OCc5ccccc5)C(=O)O)CC[C@]4(C)[C@H]3CC[C@]12C [FIP-peg4-chol (no GSGSG)] | > 1 µM |  | > 0.9 µM | 
CC(C)CCC[C@@H](C)[C@H]1CC[C@H]2[C@@H]3CC=C4C[C@@H](OC(=O)CSC[C@H](NC(=O)CNC(=O)[C@H](Cc5ccccc5)NC(=O)[C@@H](Cc5ccccc5)NC(=O)OCc5ccccc5)C(=O)O)CC[C@]4(C)[C@H]3CC[C@]12C [FIP-chol (no GSGSG)] | > 1 µM | > 1 µM | > 1 µM | IC50 [1, 4]: > 1 µM
CC(C)CCC[C@@H](C)[C@H]1CC[C@H]2[C@@H]3CC=C4C[C@@H](OCCN(CCNC(=O)CCOCCOCCOCCOCCNC(=O)CCCN5C(=O)CC(SC[C@H](NC(=O)CNC(=O)[C@H](CO)NC(=O)CNC(=O)[C@H](CO)NC(=O)CNC(=O)CNC(=O)[C@H](Cc6ccccc6)NC(=O)[C@@H](Cc6ccccc6)NC(=O)OCc6ccccc6)C(=O)O)C5=O)CCNC(=O)CCOCCOCCOCCOCCNC(=O)CCCN5C(=O)CC(SC[C@H](NC(=O)CNC(=O)[C@H](CO)NC(=O)CNC(=O)[C@H](CO)NC(=O)CNC(=O)CNC(=O)[C@H](Cc6ccccc6)NC(=O)[C@@H](Cc6ccccc6)NC(=O)OCc6ccccc6)C(=O)O)C5=O)CC[C@]4(C)[C@H]3CC[C@]12C (stereo partly shown) [[FIP-peg4]2-chol] (I: Cbz-[dF]FGGSGSGC-OH / II: Cbz-[dF]FGGSGSGC-OH; linker I:9-II:9 via X1) | 1.845 ± 0.016 µM | 0.51 ± 0.36 µM | 0.927 ± 0.359 µM | IC90 [1]: 1.845 ± 0.016 µM; IC50 [1, 5]: 0.452 ± 0.196 µM
FIP-HRC450-485 (no GSGSG) (peptide) |  |  |  | IC50, beta-galactosidase complementation-based fusion assay, Nectin-4 target cells [3]: 2.77 µM; IC90, beta-galactosidase complementation-based fusion assay, Nectin-4 target cells [3]: 6.37 µM
CC[C@H](C)[C@H](NC(=O)[C@H](C)NC(=O)[C@H](CC(N)=O)NC(=O)CNC(=O)[C@H](CC(C)C)NC(=O)[C@H](CC(N)=O)NC(=O)[C@@H](NC(=O)CNC(=O)[C@@H](NC(=O)[C@H](CC(=O)O)NC(=O)[C@H](CC(C)C)NC(=O)[C@H](CCCNC(=N)N)NC(=O)[C@H](CCC(=O)O)NC(=O)[C@H](CC(C)C)NC(=O)[C@H](CO)NC(=O)[C@@H](NC(=O)[C@@H]1CCCN1C(=O)[C@@H]1CCCN1C(=O)CNC(=O)[C@H](CO)NC(=O)CNC(=O)[C@H](CO)NC(=O)CNC(=O)CNC(=O)[C@H](Cc1ccccc1)NC(=O)[C@@H](Cc1ccccc1)NC(=O)OCc1ccccc1)[C@@H](C)CC)C(C)C)[C@@H](C)O)C(=O)N[C@@H](C)C(=O)N[C@@H](CCCCN)C(=O)N[C@@H](CC(C)C)C(=O)N[C@@H](CCC(=O)O)C(=O)N[C@@H](CC(=O)O)C(=O)N[C@@H](C)C(=O)N[C@@H](CCCCN)C(=O)N[C@@H](CCC(=O)O)C(=O)N[C@@H](CC(C)C)C(=O)N[C@@H](CC(C)C)C(=O)N[C@@H](CCC(=O)O)C(=O)N[C@@H](CO)C(=O)N[C@@H](CO)C(=O)N[C@@H](CC(=O)O)C(=O)N[C@@H](CCC(N)=O)C(=O)N[C@H](C(=O)N[C@@H](CC(C)C)C(=O)N[C@@H](CCCNC(=N)N)C(=O)N[C@@H](CSC1CC(=O)N(CCC(=O)NCCOCCOCCOCCOCCOCCOCCOCCOCCOCCOCCOCCNC(=O)CCN2C(=O)CC(SC[C@H](NC(=O)[C@H](CCCNC(=N)N)NC(=O)[C@H](CC(C)C)NC(=O)[C@@H](NC(=O)[C@H](CCC(N)=O)NC(=O)[C@H](CC(=O)O)NC(=O)[C@H](CO)NC(=O)[C@H](CO)NC(=O)[C@H](CCC(=O)O)NC(=O)[C@H](CC(C)C)NC(=O)[C@H](CC(C)C)NC(=O)[C@H](CCC(=O)O)NC(=O)[C@H](CCCCN)NC(=O)[C@H](C)NC(=O)[C@H](CC(=O)O)NC(=O)[C@H](CCC(=O)O)NC(=O)[C@H](CC(C)C)NC(=O)[C@H](CCCCN)NC(=O)[C@H](C)NC(=O)[C@@H](NC(=O)[C@H](C)NC(=O)[C@H](CC(N)=O)NC(=O)CNC(=O)[C@H](CC(C)C)NC(=O)[C@H](CC(N)=O)NC(=O)[C@@H](NC(=O)CNC(=O)[C@@H](NC(=O)[C@H](CC(=O)O)NC(=O)[C@H](CC(C)C)NC(=O)[C@H](CCCNC(=N)N)NC(=O)[C@H](CCC(=O)O)NC(=O)[C@H](CC(C)C)NC(=O)[C@H](CO)NC(=O)[C@@H](NC(=O)[C@@H]3CCCN3C(=O)[C@@H]3CCCN3C(=O)CNC(=O)[C@H](CO)NC(=O)CNC(=O)[C@H](CO)NC(=O)CNC(=O)CNC(=O)[C@H](Cc3ccccc3)NC(=O)[C@@H](Cc3ccccc3)NC(=O)OCc3ccccc3)[C@@H](C)CC)C(C)C)[C@@H](C)O)[C@@H](C)CC)[C@@H](C)CC)C(=O)O)C2=O)C1=O)C(=O)O)[C@@H](C)CC (stereo partly shown) [[FIP-HRC450-485]2-peg11 (no GSGSG)] | > 1 µM |  | > 1 µM | 
FIP-HRC450-485 (no GSGSG), Monomer N-Maleimide (peptide) |  |  |  | IC50, beta-galactosidase complementation-based fusion assay, Nectin-4 target cells [3]: > 0.7 µM; IC90, beta-galactosidase complementation-based fusion assay, Nectin-4 target cells [3]: > 10 µM
CCN1C(=O)CC(SC[C@H](NC(=O)CNC(=O)[C@H](Cc2ccccc2)NC(=O)[C@@H](Cc2ccccc2)NC(=O)OCc2ccccc2)C(=O)O)C1=O (stereo partly shown) [Monomer N-Maleimide FIP (no GSGSG)] (Cbz-[dF]FGC(Succinimide(1-Et,3-yl))-OH) | > 1 µM |  | > 1 µM | 
FIP-HRC450-485, Monomer N-Maleimide (peptide) |  |  |  | IC50, beta-galactosidase complementation-based fusion assay, Nectin-4 target cells [3]: > 1 µM; IC90, beta-galactosidase complementation-based fusion assay, Nectin-4 target cells [3]: > 1 µM

Reference: US20230014151A1, “COMBINATION ANTIVIRAL THERAPY FOR MEASLES” (The Trustees of Columbia University in the City of New York, priority 2019, published 2023)
